Test results as given in patent US4175081A, “5-Substituted thiadiazole ureas” (priority 1977, dated 1979).

Assays:
Turnip (TP) [1] = experiment: Post-emergence herbicide test; assay type: in vivo, Brassica sp.; details: Brassica rapa, post-emergence, 336 h; 8 lb/acre; two weeks after treatment
Procedure, shortened: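 A greenhouse post-emergence herbicide test on turnip. Seeds were sown on the surface of potting soil in 3' plastic pots, lightly covered with screened soil and watered from below. Planting was timed so seedlings had 1 or 2 true leaves above the cotyledons at spraying, done in a hood with a fixed nozzle. Control or injury was scored by eye after two weeks.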

Johnson grass (JG) [2] = experiment: Post-emergence herbicide test; assay type: in vivo, Sorgum helepense; details: Sorghum halepense, 336 h, 8 lb/acre, two weeks after treatment
Procedure, shortened: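 Greenhouse pot-grown seedlings sprayed post-emergence at 8 lbs compound per acre (some at 4 lbs/acre) in 38 gallons per acre spray volume. Sub-irrigated thereafter. Injury/control rated visually two weeks after treatment.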

Barnyard grass (BG) [3] = experiment: Pre-emergence herbicide test; assay type: in vivo; details: Echinochloa crus-galli, 336 h, 8 lb/acre, two weeks after treatment
Procedure, shortened: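 Barnyard grass surface-seeded in potting soil and sprayed pre-emergence one day after seeding, at 8 or 4 lb compound/acre in 38 gal/acre spray volume. Pots kept in greenhouse with sub-irrigation only; injury or control rated visually two weeks after treatment.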

Bean (BN) [4] = experiment: Pre-emergence herbicide test; assay type: in vivo, Phaseolus vulgaris var. Black Valentine; details: Phaseolus vulgaris, 336 h, 8 lb/acre, two weeks after treatment
Procedure, shortened: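 Black Valentine bean was seeded in potting soil one day before spraying. Compound was applied pre-emergence at 8 lbs/acre (also 4 lbs/acre) in 38 gallons per acre. Plants were sub-irrigated and injury or control was rated visually after two weeks.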

[5] = system: variety of crops and weed species; experiment: Pre- and post-emergence herbicide tests, overall assessment of Tables III-VI; assay type: in vivo; details: data of Tables III-VI
Procedure, shortened: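 Crops and weeds grown in potting soil were sprayed at 8 lbs. compound per acre in 38 gallons per acre, pre-emergence pots seeded one day before treatment. Injury or control was visually rated two weeks after treatment.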

Cotton (CT) [6] = experiment: Pre-emergence herbicide test; assay type: in vivo, Gossypium hirsutum var. DPL smooth leaf; details: Gossypium hirsutum, 336 h, 8 lb/acre, two weeks after treatment
Procedure, shortened: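 Crop and weed species seeded one day before treatment, then sprayed pre-emergence at 8 lbs actual compound per acre (also 4 lbs/acre formulations) in 38 gallons per acre. Pots kept in greenhouse with sub-irrigation only; injury or control visually rated two weeks after treatment.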

Amaranth pigweed (PW) [7] = experiment: Pre-emergence herbicide test; assay type: in vivo, Amaranthus retroflexus; details: 336 h, 8 lb/acre, two weeks after treatment
Procedure, shortened: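 Pigweed was surface-seeded in potted soil one day before spraying at 8 lbs compound per acre, or 4 lbs/acre, in 38 gallons per acre. Pots were kept in the greenhouse with sub-irrigation only; injury or control was rated visually two weeks after treatment.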

Johnson grass (JG) [8] = experiment: Pre-emergence herbicide test; assay type: in vivo, Sorgum helepense; details: Sorghum halepense, 336 h, 8 lb/acre, two weeks after treatment
Procedure, shortened: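 Pots seeded one day before spraying; compound applied pre-emergence at 8 lbs/acre (or 4 lbs/acre) in 38 gallons/acre spray volume. Sub-irrigated in greenhouse; injury/control rated visually two weeks after treatment.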

Bean (BN) [9] = experiment: Post-emergence herbicide test; assay type: in vivo, Phaseolus vulgaris var. Black Valentine; details: Phaseolus vulgaris, post-emergence, 336 h; 8 lb/acre; two weeks after treatment
Procedure, shortened: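 Snapbean (Phaseolus vulgaris var. Black Valentine) was tested post-emergence. Four seeds were sown in 3' plastic pots of potting soil at a depth equal to the seed diameter, then sub-irrigated in greenhouse trays. Planting dates were staggered so plants were sprayed once primary leaves had expanded, with the growing point at the primary leaf nodes.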

Corn (CN) [10] = experiment: Pre-emergence herbicide test; assay type: in vivo; details: Zea mays, 336 h, 8 lb/acre, two weeks after treatment
Procedure, shortened: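 Four corn seeds per pot, sown at seed-diameter depth one day before spraying, got soil surface treatment at 8 lbs/acre (4 lbs/acre formulations also prepared) in 38 gallons/acre. Pots were greenhouse-held with sub-irrigation only. Injury or control was scored visually two weeks after treatment.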

Turnip (TP) [11] = experiment: Pre-emergence herbicide test; assay type: in vivo, Brassica sp.; details: Brassica rapa, pre-emergence, 336 h; 8 lb/acre; two weeks after treatment
Procedure, shortened: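 Turnip (Brassica sp.) seeds were surface sown in 3' plastic pots of potting soil, covered with a thin layer of screened soil, and sub-irrigated in greenhouse trays. Pots were seeded one day ahead of treatment, sprayed pre-emergence under a hood with a fixed nozzle and moving belt, then kept in the greenhouse.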

Barnyard grass (BG) [12] = experiment: Post-emergence herbicide test; assay type: in vivo; details: Echinochloa crus-galli, 336 h, 8 lb/acre, two weeks after treatment
Procedure, shortened: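 Greenhouse pot-grown barnyard grass seedlings sprayed post-emergence at 8 lbs active compound per acre (some at 4 lbs/acre) in 38 gallons per acre, then sub-irrigated. Injury or control rated visually two weeks after treatment.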

Crabgrass (CG) [13] = experiment: Post-emergence herbicide test; assay type: in vivo, Digitaria sanquinalis; details: Digitaria sanguinalis, post-emergence, 336 h; 8 lb/acre; two weeks after treatment
Procedure, shortened: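 Crabgrass (Digitaria sanquinalis) was surface seeded individually in 3' plastic pots of potting soil, covered with screened soil, and watered by sub-irrigation in greenhouse trays. Planting was staggered so seedlings reached the target stage together. Post-emergence sprays were applied in a hood with a removable belt and fixed nozzle, and control was visually rated two weeks after treatment.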

Amaranth pigweed (PW) [14] = experiment: Post-emergence herbicide test; assay type: in vivo, Amaranthus retroflexus; details: 336 h, 8 lb/acre, two weeks after treatment
Procedure, shortened: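 Pot-grown pigweed was sprayed post-emergence at the 1–2 true-leaf stage with compound at rates equivalent to 8 lbs per acre (formulations also prepared for 4 lbs/acre) in 38 gallons per acre, using a hood with fixed nozzle. Plants were sub-irrigated in the greenhouse, and injury or control was rated visually two weeks after treatment.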

[15] = system: Yellow foxtail grass (YF); experiment: Post-emergence herbicide test; assay type: in vivo, Setaria glauca; details: Setaria, 336 h, 8 lb/acre, two weeks after treatment
Procedure, shortened: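 Potted seedlings grown in greenhouse, planting staggered to reach the target stage together, then sprayed post-emergence at 8 lbs actual compound/acre in 38 gallons/acre (4 lbs/acre formulations also prepared). Sub-irrigated afterwards. Injury or control rated visually two weeks after treatment.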

Crabgrass (CG) [16] = experiment: Pre-emergence herbicide test; assay type: in vivo, Digitaria sanquinalis; details: Digitaria sanguinalis, pre-emergence, 336 h; 8 lb/acre; two weeks after treatment
Procedure, shortened: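 Crabgrass (Digitaria sanquinalis) was surface seeded in 3' plastic pots of potting soil, covered with screened soil, and watered by sub-irrigation in greenhouse trays. Pots were seeded one day before spraying in a hood with a moving belt and fixed nozzle. Plants stayed in the greenhouse on sub-irrigation, and pre-emergence control was rated visually two weeks after treatment.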

[17] = system: Yellow foxtail grass (YF); experiment: Pre-emergence herbicide test; assay type: in vivo, Setaria glauca; details: Setaria, 336 h, 8 lb/acre, two weeks after treatment
Procedure, shortened: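 Seeds surface-sown in potting soil one day before spraying; compounds applied pre-emergence at 8 or 4 lbs/acre in 38 gallons/acre spray. Pots held in greenhouse with sub-irrigation only. Injury or control rated visually two weeks after treatment.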

Corn (CN) [18] = experiment: Post-emergence herbicide test; assay type: in vivo; details: Zea mays, 336 h, 8 lb/acre, two weeks after treatment
Procedure, shortened: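 Greenhouse seedlings grown in potting soil and sprayed post-emergence at 8 lbs compound/acre (formulations also made for 4 lbs/acre) in 38 gallons/acre spray volume. Watering by sub-irrigation only. Injury or control rated visually two weeks after treatment.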

Cotton (CT) [19] = experiment: Post-emergence herbicide test; assay type: in vivo, Gossypium hirsutum var. DPL smooth leaf; details: Gossypium hirsutum, post-emergence, 336 h; 8 lb/acre; two weeks after treatment
Procedure, shortened: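 Cotton (Gossypium hirsutum var. DPL smooth leaf) was grown in 3' plastic pots of potting soil, four seeds per pot, planted at a depth equal to the seed diameter and watered by sub-irrigation. At the stage of expanded cotyledons with the first true leaf 1' long, plants were sprayed post-emergence in a hood with a fixed nozzle over a moving belt. Percent control was rated visually two weeks later.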

| SMILES | pest or weed control at 8966.8 g/ha (Turnip (TP) [1]) | pest or weed control at 8966.8 g/ha (Johnson grass (JG) [2]) | pest or weed control at 8966.8 g/ha (Barnyard grass (BG) [3]) | pest or weed control at 8966.8 g/ha (Bean (BN) [4]) | herbicidal effectiveness / selectivity, in words [5] | pest or weed control at 8966.8 g/ha (Cotton (CT) [6]) | pest or weed control at 8966.8 g/ha (Amaranth pigweed (PW) [7]) | pest or weed control at 8966.8 g/ha (Johnson grass (JG) [8]) | pest or weed control at 8966.8 g/ha (Bean (BN) [9]) | pest or weed control at 8966.8 g/ha (Corn (CN) [10]) | pest or weed control at 8966.8 g/ha (Turnip (TP) [11]) | pest or weed control at 8966.8 g/ha (Barnyard grass (BG) [12]) | pest or weed control at 8966.8 g/ha (Crabgrass (CG) [13]) | pest or weed control at 8966.8 g/ha (Amaranth pigweed (PW) [14]) | pest or weed control at 8966.8 g/ha [15] | pest or weed control at 8966.8 g/ha (Crabgrass (CG) [16]) | pest or weed control at 8966.8 g/ha [17] | pest or weed control at 8966.8 g/ha (Corn (CN) [18]) | pest or weed control at 8966.8 g/ha (Cotton (CT) [19]) |
| --- | --- | --- | --- | --- | --- | --- | --- | --- | --- | --- | --- | --- | --- | --- | --- | --- | --- | --- | --- |
| C=CCNC(=O)Nc1nnc(C(F)(F)F)s1 [Example 12] | 70% | 40% | 10% | 10% | control post-emergence growth, while have little effect in regard to pre-emergence | 30% | 10% | 10% | 100% | 10% | 10% | 50% | 50% | 70% | 40% | 20% | 10% | 40% | 90% |
| CNC(=O)Nc1nnc(COC)s1 [Example 25] | 30% | 30% | 10% | 70% | more selective when applied to a certain crop or weed species | 100% | 10% | 10% | 100% | 10% | 10% | 20% | 30% | 40% | 20% | 20% | 10% | 30% | 100% |
| CNC(=O)Nc1nncs1 [Example 35] | 20% | 10% | 10% | 60% | more selective when applied to a certain crop or weed species | 100% | 10% | 10% | 30% | 10% | 10% | 10% | 10% | 100% | 10% | 10% | 10% | 10% | 50% |
